In PubChem BioAssay AID248 (DTP/NCI, 2004) one finds T/C data, which are given here for 17 compounds.

Each structure is given as a SMILES string. Values joined by “and” are separate entries in the source; they are usually repeats but may differ in a detail not shown here. Equal entries are not always repeated. Toxic doses and inconclusive results are not listed.

This assay has as its system L1210 leukemia ip in BDF1 mice, survival T/C. In words: NCI In Vivo Anticancer Drug Screen. Data for tumor model L1210 Leukemia (intraperitoneal) in B6D2F1 (BDF1) mice. The following applies: endpoint: mean survival time, higher = longer survival. The procedure, abridged:
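Transplanted-tumor mice were given test agent; controls received vehicle only. Survival readings from the two groups were divided (treated over control).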

Setting [1] is: dose: 100.0 mg/kg/injection, schedule: Q04DX002 (ip), vehicle: Klucel (hydroxypropylcellulose) (HPC).
[2] abbreviates: dose: 200.0 mg/kg/injection, schedule: Q04DX002 (ip), vehicle: Klucel (hydroxypropylcellulose) (HPC).
Where [3] appears, read: dose: 400.0 mg/kg/injection, schedule: Q04DX002 (ip), vehicle: Klucel (hydroxypropylcellulose) (HPC).
The mark [4] stands for this setting: dose: 75.0 mg/kg/injection, schedule: Q01DX001 (ip), vehicle: saline.
Where [5] appears, read: dose: 150.0 mg/kg/injection, schedule: Q01DX001 (ip), vehicle: saline.
[6] abbreviates: dose: 50.0 mg/kg/injection, schedule: Q01DX009 (ip), vehicle: saline with Tween-80.
Where [7] appears, read: dose: 50.0 mg/kg/injection, schedule: Q01DX001 (ip), vehicle: other.
Where [8] appears, read: dose: 100.0 mg/kg/injection, schedule: Q01DX001 (ip), vehicle: Klucel (hydroxypropylcellulose) (HPC).
The mark [9] stands for this setting: dose: 100.0 mg/kg/injection, schedule: Q01DX009 (ip), vehicle: Klucel (hydroxypropylcellulose) (HPC).
Where [10] appears, read: dose: 200.0 mg/kg/injection, schedule: Q01DX001 (ip), vehicle: Klucel (hydroxypropylcellulose) (HPC).
[11] abbreviates: dose: 200.0 mg/kg/injection, schedule: Q01DX009 (ip), vehicle: Klucel (hydroxypropylcellulose) (HPC).
The mark [12] stands for this setting: dose: 400.0 mg/kg/injection, schedule: Q01DX001 (ip), vehicle: Klucel (hydroxypropylcellulose) (HPC).
[13] abbreviates: dose: 400.0 mg/kg/injection, schedule: Q01DX009 (ip), vehicle: Klucel (hydroxypropylcellulose) (HPC).
Setting [14] is: dose: 100.0 mg/kg/injection, schedule: Q04DX003 (ip), vehicle: Klucel (hydroxypropylcellulose) (HPC).
Setting [15] is: dose: 200.0 mg/kg/injection, schedule: Q04DX003 (ip), vehicle: Klucel (hydroxypropylcellulose) (HPC).
[16] abbreviates: dose: 400.0 mg/kg/injection, schedule: Q04DX003 (ip), vehicle: Klucel (hydroxypropylcellulose) (HPC).

`CCCCCCCCC1SC1CCCCCCCC(=O)O` (centres undefined): the T/C is 103 % of control under setting [1], 100 % of control under setting [2] and 95 % of control under setting [3].

For `Nc1cc2c(cc1Cl)-c1ccc([N+](=O)[O-])cc1/C2=N\O`, the T/C (dose: 100.0 mg/kg/injection, schedule: Q01DX001 (ip), vehicle: carboxymethylcellulose (CMC)) was 104 % of control; the T/C (dose: 200.0 mg/kg/injection, schedule: Q01DX001 (ip), vehicle: carboxymethylcellulose (CMC)) was 116 % of control; the T/C (dose: 400.0 mg/kg/injection, schedule: Q01DX001 (ip), vehicle: carboxymethylcellulose (CMC)) is 104 % of control.

In the case of `FC(F)(F)c1nc2ccccc2[nH]1`, the T/C is 86 % of control (dose: 50.0 mg/kg/injection, schedule: Q04DX002 (ip), vehicle: Klucel (hydroxypropylcellulose) (HPC)); 100 % of control under setting [1]; 93 % of control under setting [2].

For the compound `Nc1nc(N)c(N=Nc2ccc([As](=O)(O)O)c(O)c2)c(N)n1`, the T/C (dose: 100.0 mg/kg/injection, schedule: Q01DX001 (ip), vehicle: saline) is 92 % of control; the T/C (dose: 200.0 mg/kg/injection, schedule: Q01DX001 (ip), vehicle: saline) was 92 % of control; the T/C (dose: 400.0 mg/kg/injection, schedule: Q01DX001 (ip), vehicle: saline) was 100 % of control.

Turning to `CCN(CC)CCOC(=O)C(c1ccccc1)c1ccccc1`, the T/C is 104 % of control under setting [4] and 94 % of control under setting [5].

`Cc1ccc(NC(=O)NCC2(C)CC(NC(=O)Nc3ccc(C)cc3)CC(C)(C)C2)cc1` (centres undefined): the T/C was 87 % of control under setting [6]; 91 % of control (dose: 100.0 mg/kg/injection, schedule: Q04DX003 (ip), vehicle: saline with Tween-80); 91 % of control (dose: 200.0 mg/kg/injection, schedule: Q04DX003 (ip), vehicle: saline with Tween-80).

Regarding `O=C(CNC(=O)c1ccc(Cl)cc1Cl)N/N=C/c1ccc(Cl)c(Cl)c1`, the T/C is, setting by setting: (dose: 25.0 mg/kg/injection, schedule: Q01DX009 (ip), vehicle: saline with Tween-80) 95 % of control; under setting [6], 91 % of control; (dose: 100.0 mg/kg/injection, schedule: Q01DX009 (ip), vehicle: saline with Tween-80) 88 % of control.

In the case of `NNC(=O)C1CCN1C(c1ccccc1)c1ccccc1` (centres undefined), the T/C was 101 % of control (dose: 25.0 mg/kg/injection, schedule: Q01DX001 (ip), vehicle: saline with Tween-80); 101 % of control (dose: 50.0 mg/kg/injection, schedule: Q01DX001 (ip), vehicle: saline with Tween-80); 97 % of control (dose: 100.0 mg/kg/injection, schedule: Q01DX001 (ip), vehicle: saline with Tween-80).

`CCCCC(=O)c1cc(OC)cc(OC)c1`: the T/C is 109 % of control under setting [7]; 95 % of control under setting [8]; 102 % of control (dose: 100.0 mg/kg/injection, schedule: Q01DX001 (ip), vehicle: other); 97 % of control under setting [9]; 95 % of control under setting [10]; 104 % of control (dose: 200.0 mg/kg/injection, schedule: Q01DX001 (ip), vehicle: other). For the same compound, the T/C is, setting by setting: under setting [11], 96 % of control; under setting [12], 98 % of control; (dose: 400.0 mg/kg/injection, schedule: Q01DX001 (ip), vehicle: other) 91 % of control; under setting [13], 100 % of control.

In the case of `O=[N+]([O-])c1cc(S(=O)(=O)O)cc([N+](=O)[O-])c1Cl`, the T/C was 112 % of control under setting [4]; 109 % of control under setting [5]; 113 % of control (dose: 300.0 mg/kg/injection, schedule: Q01DX001 (ip), vehicle: saline).

As to `CN(C)c1ccc(Cc2ccc(N(C)C)cc2[N+](=O)[O-])cc1`, the T/C under setting [9] was 102 % of control; the T/C under setting [14] is 96 % of control; the T/C under setting [11] was 93 % of control; the T/C under setting [15] was 96 % of control; the T/C under setting [13] is 95 % of control; the T/C under setting [16] is 101 % of control.

As for `N#CSCc1c(Cl)c(Cl)c(CSC#N)c(Cl)c1Cl`, the T/C was 96 % of control (dose: 75.0 mg/kg/injection, schedule: Q01DX009 (ip), vehicle: saline); 94 % of control (dose: 150.0 mg/kg/injection, schedule: Q01DX009 (ip), vehicle: saline); 93 % of control (dose: 300.0 mg/kg/injection, schedule: Q01DX009 (ip), vehicle: saline).

With `O=C(c1ccccc1)C1NC1c1ccc([N+](=O)[O-])cc1` (centres undefined), the T/C (dose: 50.0 mg/kg/injection, schedule: Q01DX001 (ip), vehicle: Klucel (hydroxypropylcellulose) (HPC)) was 89 % of control; the T/C under setting [8] was 97 % of control; the T/C under setting [10] is 97 % of control; the T/C under setting [12] is 92 % of control.

With `N=C(N)/C(N)=N\C1=NCCN1`, the T/C is 101 % of control under setting [9]; 95 % of control under setting [14]; 97 % of control (dose: 178.0 mg/kg/injection, schedule: Q04DX003 (ip), vehicle: Klucel (hydroxypropylcellulose) (HPC)); 101 % of control under setting [11]; 93 % of control under setting [15]; 92 % of control (dose: 266.0 mg/kg/injection, schedule: Q04DX003 (ip), vehicle: Klucel (hydroxypropylcellulose) (HPC)). Further, the T/C under setting [16] was 90 % of control and 92 % of control; the T/C (dose: 600.0 mg/kg/injection, schedule: Q04DX003 (ip), vehicle: Klucel (hydroxypropylcellulose) (HPC)) is 93 % of control.

Turning to `C[NH-].C[NH-].[Br][Pt+2][Br]`, the T/C runs as follows: (dose: 0.62 mg/kg/injection, schedule: Q01DX009 (ip), vehicle: water) 118 % of control and 123 % of control; (dose: 1.5 mg/kg/injection, schedule: Q01DX001 (ip), vehicle: other) 108 % of control; (dose: 1.5 mg/kg/injection, schedule: Q01DX009 (ip), vehicle: other) 115 % of control; (dose: 2.0 mg/kg/injection, schedule: Q01DX009 (ip), vehicle: other) 161 % of control; (dose: 3.0 mg/kg/injection, schedule: Q01DX001 (ip), vehicle: other) 117 % of control; (dose: 3.0 mg/kg/injection, schedule: Q01DX005 (ip), vehicle: saline with Tween-80) 105 % of control. In addition, the T/C runs as follows: (dose: 3.0 mg/kg/injection, schedule: Q01DX009 (ip), vehicle: other) 153 % of control; (dose: 4.5 mg/kg/injection, schedule: Q01DX009 (ip), vehicle: other) 95 % of control; (dose: 5.0 mg/kg/injection, schedule: Q01DX009 (ip), vehicle: water) 98 % of control; (dose: 6.0 mg/kg/injection, schedule: Q01DX001 (ip), vehicle: other) 117 % of control; (dose: 6.0 mg/kg/injection, schedule: Q01DX009 (ip), vehicle: other) 98 % of control; (dose: 10.0 mg/kg/injection, schedule: Q01DX009 (ip), vehicle: water) 115 % of control. Also, the T/C (dose: 25.0 mg/kg/injection, schedule: Q01DX001 (ip), vehicle: other) is 124 % of control and the T/C under setting [7] was 95 % of control.

As for `O=C(O)CCSSc1ccc([N+](=O)[O-])cc1[N+](=O)[O-]`, the T/C (dose: 12.5 mg/kg/injection, schedule: Q01DX009 (ip), vehicle: Klucel (hydroxypropylcellulose) (HPC)) is 96 % of control; the T/C (dose: 12.5 mg/kg/injection, schedule: Q04DX003 (ip), vehicle: Klucel (hydroxypropylcellulose) (HPC)) is 98 % of control; the T/C (dose: 25.0 mg/kg/injection, schedule: Q01DX009 (ip), vehicle: Klucel (hydroxypropylcellulose) (HPC)) was 99 % of control; the T/C (dose: 25.0 mg/kg/injection, schedule: Q04DX003 (ip), vehicle: Klucel (hydroxypropylcellulose) (HPC)) is 107 % of control; the T/C (dose: 50.0 mg/kg/injection, schedule: Q04DX003 (ip), vehicle: Klucel (hydroxypropylcellulose) (HPC)) was 105 % of control.

As for `COc1ccc(NC(=O)NCc2ccc(C)cc2)cc1`, the T/C under setting [1] is 104 % of control, the T/C under setting [2] is 104 % of control and the T/C under setting [3] was 96 % of control.
